Data reported in PubChem BioAssay (NCI).
“And” between values parts separate entries of the source, which are not always exact repeats. Equal entries are not always repeated.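 A five-concentration, 48-hour dose response in 96-well plates underlies each endpoint, interpolated linearly between surrounding concentrations. The concentration for 50% growth inhibition is given as GI50. At the TGI there is no net growth.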

Legend:
Assay in all cases: growth of human tumour cells (NCI), 48 h
[1] = system: HOP-62 NSCLC
[2] = system: SK-MEL-28 melanoma
[3] = system: IGROV1 ovarian
[4] = system: CAKI-1 renal
[5] = system: EKVX NSCLC
[6] = system: HS 578T breast
[7] = system: UACC-257 melanoma
[8] = system: DU-145 prostate
[9] = system: TK-10 renal
[10] = system: NCI-H522 lung

| Compound | GI50 [1] | TGI [1] [µM] | GI50 [2] | TGI [2] | GI50 [3] [µM] | TGI [3] [µM] | GI50 [4] | TGI [4] | GI50 [5] | TGI [5] | GI50 [6] [µM] | TGI [6] [µM] | GI50 [7] | TGI [7] | GI50 [8] | TGI [8] | GI50 [9] [µM] | TGI [9] [µM] | GI50 [10] | TGI [10] |
| --- | --- | --- | --- | --- | --- | --- | --- | --- | --- | --- | --- | --- | --- | --- | --- | --- | --- | --- | --- | --- |
| O=C(/C=C/c1ccc2c(c1)OCO2)c1ccccc1 | 23.9 µM | 80.9 | 19.5 µM | 41.4 µM | 4.43 | 27.7 | 6.9 µM | 23 µM | 15.1 µM | 31.1 µM | 11.8 | 45.6 | 18.6 µM | 39.5 µM | 10.2 µM | 22.1 µM | – | – | – | – |
| COc1cc(N)ccc1Nc1c2ccccc2nc2ccccc12 | 9.98 µM | 27.9 | 16.3 µM | 34.9 µM | 10.2 | > 59.4 | 7.75 µM | 25.1 µM | – | – | 14.3 | 44.3 | 20.2 µM | 44 µM | 3.79 µM | 14.8 µM | 14.6 | 30.2 | 17.9 µM | 51.3 µM |
| COc1ccc(C(=O)O)c2c(=O)c3ccccc3[nH]c12 | – | > 31.6 | – | > 100 µM | – | > 100 | – | > 100 µM | – | > 100 µM | – | – | – | > 100 µM | – | – | – | > 100 | – | > 100 µM |
| CO/C=C/c1cc2c(cc1C(OC)OC)OCO2 | – | 75 | – | > 100 µM | – | > 100 | – | > 100 µM | – | > 100 µM | – | – | – | > 100 µM | – | – | – | > 100 | – | > 100 µM |
| CCC[CH2][Sn]([CH2]CCC)([O]C(=O)c1cccc(F)c1F)[O][Sn]([CH2]CCC)([CH2]CCC)[O]C(=O)c1cccc(F)c1F | 1.6 µM | 3 | 0.154 µM | 0.369 µM | 0.781 | 2.15 | 0.116 µM | 0.363 µM | 0.675 µM | 2.04 µM | – | – | 0.222 µM | 0.728 µM | 0.457 µM | 1.63 µM | 0.206 | 0.562 | 0.01 µM | 0.0697 µM |
| CCCN1C(=O)/C(=C/c2ccc(O)cc2)SC1=Nc1ccccc1 | 21.2 µM | 37.9 | 27.7 µM | 50.9 µM | 38 | > 100 | 21.6 µM | 38.8 µM | 14.5 µM | 32.1 µM | – | – | > 100 µM | > 100 µM | 17.4 µM | 40.8 µM | 18.6 | 38.5 | 39.7 µM | > 100 µM |
| N#C/C(=C\c1ccc(Br)cc1)n1nnc2cc(F)c(F)cc21 | 1.93 µM | 4.27 | 1.84 µM | 3.63 µM | 1.74 | 3.77 | 1.37 µM | 2.79 µM | – | – | 2.71 | 8.3 | – | – | – | – | 2.16 | 5.56 | 1.35 µM | 3.25 µM |
| COC1=CC(C)C2C[C@H]3O[C@H](O)C[C@H]4C(C)C(=O)C(O)C([C@@]2(C)C1=O)[C@@]34C (some centres not stated) | – | – | – | > 100 µM | – | > 100 | – | > 100 µM | – | > 100 µM | – | – | – | > 100 µM | – | – | – | > 100 | – | > 100 µM |
| CC(=O)Oc1cc2c(=O)oc3c(OC(C)=O)c(OC(C)=O)c(OC(C)=O)c4c(=O)oc(c1OC(C)=O)c2c34 | – | > 100 | – | > 100 µM | – | > 100 | – | > 100 µM | – | > 100 µM | – | – | – | > 100 µM | – | – | – | > 100 | – | > 100 µM |
| O=C(Nc1nc(-c2ccc(Cl)cc2)cs1)c1ccc(O)c(O)c1 | 4.68 µM | 17.6 | 3.63 µM | 20 µM | 2.38 | 8.04 | 3.02 µM | 10.9 µM | – | – | 9.45 | 53.9 | 6.29 µM | 24.3 µM | 4.43 µM | 15.9 µM | 2.87 | 9.98 | 1.8 µM | 9.97 µM |
| COc1ccc(C2c3cc4c(cc3OC(O)(CO)C2C(=O)O)OCO4)c(OC)c1OC (configuration not stated) (tested in a mixture with another compound) | – | > 100 | – | > 100 µM | – | > 100 | – | > 100 µM | – | > 100 µM | – | – | – | > 100 µM | – | – | – | > 100 | – | – |
| O=C(Nc1ccc(N=Nc2ccccc2)cc1)Sc1ccccc1C(=O)O | – | > 100 | – | > 100 µM | – | 2.48 | – | > 100 µM | – | > 100 µM | – | – | – | > 100 µM | – | – | – | > 100 | – | > 100 µM |
| Cc1cc(Nc2nc(N3CCOCC3)nc3ccccc23)n[nH]1 | 6.22 µM | > 100 | 20.4 µM | > 100 µM | 2.12 | 27.1 | 1.4 µM | 12.3 µM | – | – | 1.44 | 4.78 | 87.7 µM | > 100 µM | 13.3 µM | > 100 µM | 1.52 | 37.3 | 17.4 µM | > 100 µM |
| Cc1ccc(C2=NN(C)COC2C(F)(F)F)cc1 (configuration not stated) | – | > 100 | – | > 100 µM | – | > 100 | – | > 100 µM | – | > 100 µM | – | – | – | > 100 µM | – | – | – | – | – | > 100 µM |
| CC1CC(C)C(=O)C(C(=O)CC2CC(=O)NC2=O)C1 (configuration not stated) | – | > 100 | – | > 100 µM | – | > 100 | – | > 100 µM | – | > 100 µM | – | – | – | > 100 µM | – | – | – | > 100 | – | > 100 µM |
| Cc1cc2c(cc1C)[n+](=O)c(C(=O)c1cccs1)c(C(F)(F)F)n2[O-] | 14.6 µM and 2.68 µM | 50 | 8.83 µM and 12.3 µM | 28.9 µM and 46.2 µM | 0.683 | 5.31 | 2.32 µM and 2.48 µM | 9.59 µM and 13.2 µM | 0.915 µM and 1.17 µM | 3.22 µM and 4.15 µM | – | – | 2.4 µM and 2.61 µM | 38 µM and 6.55 µM | 1.05 µM and 2.15 µM | 4.12 µM and 6.87 µM | – | – | 2.29 µM and 2.17 µM | 15.5 µM and 8.26 µM |
| O=C(CC1(O)C(=O)Nc2ccccc21)c1ccc(O)cc1O (configuration not stated) | – | > 100 | – | > 100 µM | – | > 100 | – | > 100 µM | – | > 100 µM | – | – | – | > 100 µM | – | – | – | > 100 | – | > 100 µM |
| C/C=C/CP(=O)(c1ccccc1)c1ccccc1 | – | > 100 | – | > 100 µM | – | > 100 | – | – | – | > 100 µM | – | – | – | > 100 µM | – | – | – | > 100 | – | > 100 µM |
